ChEMBL document CHEMBL1140450, “On-resin cyclization of peptide ligands of the Vascular Endothelial Growth Factor Receptor 1 by copper(I)-catalyzed 1,3-dipolar azide-alkyne cycloaddition” (Bioorg Med Chem Lett, 2007)
Non-standard residues stand in square brackets, D forms with d. Residues, ends and D or L forms follow the SMILES beside them. *: point of attachment. X2 = [N-]=[N+]=N[C@@H](CCCCN)C(=O)*; Pra = C#CC[C@H](N)C(=O)O

Target: Vascular endothelial growth factor receptor 1 (Homo sapiens, UniProt P17948)
Assay: Displacement of biotinylated VEGF165 from human recombinant VEGFR1

Sequence of Vascular endothelial growth factor receptor 1 (P17948 whole entry): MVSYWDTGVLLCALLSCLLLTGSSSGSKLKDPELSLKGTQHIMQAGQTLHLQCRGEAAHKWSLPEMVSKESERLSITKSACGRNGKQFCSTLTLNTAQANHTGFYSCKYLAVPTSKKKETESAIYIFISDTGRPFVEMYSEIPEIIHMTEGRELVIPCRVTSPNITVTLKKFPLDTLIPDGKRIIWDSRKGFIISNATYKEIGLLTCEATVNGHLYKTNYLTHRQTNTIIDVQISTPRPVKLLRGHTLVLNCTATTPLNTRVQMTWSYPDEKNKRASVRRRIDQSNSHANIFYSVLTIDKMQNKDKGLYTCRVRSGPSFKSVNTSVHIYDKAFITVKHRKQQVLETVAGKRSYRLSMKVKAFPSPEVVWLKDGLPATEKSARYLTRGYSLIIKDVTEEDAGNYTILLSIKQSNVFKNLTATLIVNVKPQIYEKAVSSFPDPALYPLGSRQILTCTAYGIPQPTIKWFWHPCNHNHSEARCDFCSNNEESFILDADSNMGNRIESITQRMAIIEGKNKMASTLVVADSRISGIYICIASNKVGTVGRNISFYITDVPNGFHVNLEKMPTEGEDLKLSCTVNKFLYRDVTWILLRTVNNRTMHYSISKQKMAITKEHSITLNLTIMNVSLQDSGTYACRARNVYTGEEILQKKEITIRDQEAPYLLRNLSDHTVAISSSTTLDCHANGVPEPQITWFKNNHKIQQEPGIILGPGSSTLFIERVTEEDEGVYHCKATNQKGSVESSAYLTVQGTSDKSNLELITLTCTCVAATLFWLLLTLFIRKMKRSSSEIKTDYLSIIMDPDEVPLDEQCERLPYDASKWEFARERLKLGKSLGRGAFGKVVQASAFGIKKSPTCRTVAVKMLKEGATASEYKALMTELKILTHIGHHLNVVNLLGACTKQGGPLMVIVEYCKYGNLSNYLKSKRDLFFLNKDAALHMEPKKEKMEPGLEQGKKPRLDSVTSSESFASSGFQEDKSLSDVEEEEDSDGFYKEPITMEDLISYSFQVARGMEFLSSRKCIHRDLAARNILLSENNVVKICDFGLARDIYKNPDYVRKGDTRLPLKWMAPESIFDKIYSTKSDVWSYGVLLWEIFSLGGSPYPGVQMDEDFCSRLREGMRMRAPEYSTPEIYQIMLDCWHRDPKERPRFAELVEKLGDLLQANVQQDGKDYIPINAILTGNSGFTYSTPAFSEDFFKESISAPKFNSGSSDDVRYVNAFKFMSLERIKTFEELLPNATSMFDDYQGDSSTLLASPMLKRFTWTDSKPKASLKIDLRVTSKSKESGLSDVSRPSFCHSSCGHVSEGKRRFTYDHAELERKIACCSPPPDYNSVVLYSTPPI

| Structure (SMILES) | IC50 |
| --- | --- |
| CSCC[C@@H]1NC(=O)[C@H](CCC(N)=O)NC(=O)[C@H](Cc2cnc[nH]2)NC(=O)Cn2cc(nn2)C[C@@H](C(N)=O)NC(=O)[C@H](Cc2ccc(O)cc2)NC(=O)[C@H](Cc2ccc(O)cc2)NC(=O)[C@H](Cc2ccccc2)NC1=O | 121 µM |
| C#CC[C@H](NC(=O)[C@H](CCC(=O)O)NC(=O)[C@H](CC(C)C)NC(=O)[C@@H]1CCCN1C(=O)[C@H](CCC(=O)O)NC(=O)[C@H](CC(=O)O)NC(=O)[C@H](Cc1ccc(O)cc1)NC(=O)[C@H](CCCCN)N=[N+]=[N-])C(N)=O (X2-YDEPLE[Pra]-NH2) | 151 µM |
